Measurements: a melting point compilation (Tetko et al.; mined from patent text by program, amines drawn as free bases though some values may be those of a salt)

Row | SMILES | melting point [°C]
1 | CCOC(=O)Cn1c2c(c3c(Cl)cc(Cl)cc31)CCN(C(=O)OC(C)(C)C)CC2 | 144 to 147
2 | CCCCCCCCCCCCCCOCC(CCC(=O)N(C)C)(CCC(=O)N(C)C)COCCCCCCCCCCCCCC | 47 to 49
3 | CCOc1cscc1C(=O)Nc1cc(Cl)ccc1SSc1ccc(Cl)cc1NC(=O)c1cscc1OCC | 179 to 181
4 | CCCCNc1c(C(=O)OCC)c(C)nc(S)c1[N+](=O)[O-] | 140 to 142
5 | C[C@@H]1Cc2ccsc2[C@H](C)N1CCNC(=O)c1ccc(C#N)cc1 (relative stereo) | 122 to 124
6 | CC(=O)OC1CSC(Oc2ccccc2-c2ccno2)C(OC(C)=O)C1OC(C)=O (stereo unspecified) | 75
7 | O=C(C1CCc2nc[nH]c2C1)N1CCc2ccccc21 (stereo unspecified) | 175 to 178
8 | N#Cc1c(Cl)ccc2[nH]c(Sc3cccc4c(=O)cc[nH]c34)nc12 | 376
9 | CNc1ccc(OC)c([N+](=O)[O-])c1OC | 57
10 | COc1ccc([N+](=O)[O-])c2c1OCC(C(=O)O)C2 (stereo unspecified) | 181 to 183
11 | CCSC(C)(C)C(=O)C(C(=O)Nc1cc(NC(=O)CCCOc2ccc(C(C)(C)CC)cc2C(C)(C)CC)ccc1OC)N1C(=O)OC(C)(C)C1=O (stereo unspecified) | 155 to 156
12 | CN(CCO[N+](=O)[O-])C(=O)COC(=O)c1cc(S(N)(=O)=O)c(Cl)cc1NCc1ccco1 | 70 to 72
13 | COC(=O)C(C)C1CCC2C3CC=C4CC(OC(C)=O)CCC4(C)C3CCC12C (stereo unspecified) | 140 to 142
14 | COc1cc(Br)c(N)c(C(=O)/C=C/c2ccc(OC)c(F)c2)c1 | 123 to 125
15 | COCCOC1c2ccn3c(C)c(C)nc3c2NC(c2ccccc2)C1OC(=O)CCCCO[N+](=O)[O-] (stereo unspecified) | 87.1
16 | NS(=O)(=O)c1nnc(NC(=O)CNC(=O)OCc2ccccc2)s1 | 199 to 201
17 | O=C(O)CCc1oc(-n2cncn2)nc1-c1ccc(Cl)cc1 | 168 to 169
18 | CC(C)n1nc(-c2cnc(N)nc2-c2ccccc2F)ccc1=O | 239 to 240
19 | C/C(=C\c1ccc(CO)cc1)c1ccc2c(c1)C(C)(C)C(O)CC2(C)C (stereo unspecified) | 182 to 183
20 | CCCCCCc1cc2c(cc1O)C(=O)CCC2 | 125

Row | SMILES | melting point [°C]
21 | COC(=O)[C@@]12CN(Cc3ccccc3)C[C@@H]1[C@@](O)(c1cccc(OC)c1)CC[C@H]2c1ccccc1 (racemic) | 118
22 | CC(C(=O)C=Cc1ccc(Cl)cc1)n1cncn1 (stereo unspecified) | 115 to 116
23 | CCCc1c(OCCCOc2ccc(N)cc2)ccc(C(C)=O)c1O | 75 to 77
24 | O=C1CC(O)CC(/C=C/c2ccc(Cl)c(Cl)c2)O1 (stereo unspecified) | 92 to 94
25 | CN1C(=O)C(NC(=O)Nc2ccccc2)C(=O)N(CC23CC4CC(CC(C4)C2)C3)c2ccccc21 (single isomer, unassigned; (-)) | 173 to 178
26 | Cc1cc(C(=O)CC(=O)C(F)(F)F)c(F)cc1Cl | 59 to 60
27 | O=C(O)CNC1=Nc2ccccc2C(c2ccccc2)=NC1NC(=O)Nc1ccc(Cl)cc1 (stereo unspecified) | 186
28 | CN(C(=O)CCS(C)=O)c1cnc(-c2cncc(F)c2)s1 (stereo unspecified) | 152 to 154
29 | O=C(CN1C(=O)C(NC(=O)OCc2ccccc2)N=C(c2ccccc2)c2ccccc21)NCc1ccccc1 (stereo unspecified) | 204 to 205
30 | Cc1cc(Oc2ccc([N+](=O)[O-])c(C)c2)n[nH]1 | 114 to 117
31 | Cn1c(C=O)c(-c2ccccc2)c2ccccc2c1=O | 181 to 182
32 | Cc1nn(-c2ccccn2)c2[nH]c3ccc(S(C)=O)cc3c(=O)c12 (stereo unspecified) | 268 to 269
33 | Cc1c(C)c2c(c(C)c1O)CCC(C)(O)O2 (stereo unspecified) | 105 to 107
34 | COc1cc(NC(=O)CCCCCN2CCN(C)CC2)c2nccc(C)c2c1 | 104 to 107
35 | CN1CCC(N2CCN(c3cccc(-c4cn[nH]c4N)c3)CC2)CC1 | 213 to 220
36 | CCOC(=O)c1ccc(OC(=O)CCCCC(=O)Oc2ccc(C(=O)OCC)cc2)cc1 | 82 to 83
37 | COc1ccc2cc(CC[Si](C)(C)C)c(=O)oc2c1 | 130 to 132
38 | CC(F)(F)c1ccc2c(c1)C=C(C(=O)O)C(C(F)(F)F)O2 (stereo unspecified) | 156 to 158
39 | CNc1cc(F)ccc1C(=O)CS(C)=O (stereo unspecified) | 129 to 134
40 | CC(C)(C)C1=NC=C2C=CC(=O)NC3=C2N1CC3 | 246 to 248

Row | SMILES | melting point [°C]
41 | CCc1cc2c(-c3ccccc3Cl)c([N+](=O)[O-])cnc2s1 | 72 to 73
42 | CN1CCN(c2ccc(C(=O)NCCCCCCCCCCCO[N+](=O)[O-])cn2)CC1 | 95 to 96
43 | CC[C@H](C)[C@H](NC(=O)O[C@@H](CC(C)C)C(=O)OCc1ccccc1)C(=O)NC1CCCCC1 | 98 to 100
44 | CC(C)(C)OC(=O)N1CCC2(CC1)Cn1cc([N+](=O)[O-])nc1O2 | 230 to 232
45 | O=C(Nc1ccccn1)c1cc2ccnc(Cl)c2[nH]1 | 94 to 102
46 | N#Cc1cc(-c2nc3ccccc3s2)ccc1N | 207 to 211
47 | CC1(C(=O)Nc2ccc(S(C)(=O)=O)c(C(F)(F)F)c2)CC1 | 135 to 138
48 | c1c(N2CCCC2)nc(N2CCNCC2)nc1N1CCCC1 | 152 to 160
49 | CC(=O)OC1CSC(Oc2cncc(-c3ccsc3)c2)C(OC(C)=O)C1OC(C)=O (stereo unspecified) | 175
50 | CCN(CC)c1ccc(NC(=S)N(C)N)cn1 | 147 to 149
51 | Cc1nc(-c2nc(-c3ccc(Cl)cc3)c(CCCCCO)o2)c[nH]1 | 94 to 95
52 | COC(=O)c1[nH]c2c(C)ccc(C)c2c1C(=O)OC | 143 to 144
53 | CNC(=O)c1cc2nc(C(F)(F)F)ccc2c(Cl)c1NC(=O)c1cc(C(F)(F)F)nn1-c1ncccc1Cl | 235 to 237
54 | CC(=O)NCC1CC(c2ccc(-n3ccc(C#N)c3)c(F)c2)=NO1 (single isomer, unassigned; (-)) | 159 to 161
55 | O=C(O)C=CC(=O)NCCC(=O)O | 150 to 152
56 | Nc1cc(Br)c(Br)cc1[N+](=O)[O-] | 198 to 199
57 | N[C@@H](CO)C(=O)NCc1ccccc1 | 76 to 80
58 | COc1cccc(NN=C(Cl)C(C)=O)c1 | 117 to 119
59 | Cc1ccc(C)n1-c1ccc(C(C)C#N)cc1 (stereo unspecified) | 79 to 80
60 | O=c1[nH]c(N2CCNC(CO)C2)cc2c(Br)cccc12 (stereo unspecified) | > 230

Results, then the compound that gave them:

Row | melting point [°C] | SMILES
61 | 159 to 161 | CCCC(=O)c1cnc2c(OC)cccc2c1Nc1ccccc1CO
62 | 168 to 170 | COC(=O)C1=C(C)N(CCCN2CCCCC2)c2cc[nH]c(=O)c2C1c1ccccc1C(F)(F)F (stereo unspecified)
63 | 132 | COc1ccc(C)nc1Cn1c(NCCCN2CCOCC2)nc2ccc(CNc3cc(C)ccc3CCCO)cc21
64 | 170 to 171 | COC(=O)c1cccc(CSc2c(O)cc(-c3ccccc3)oc2=O)c1
65 | 208 to 210 | Cc1ccc(S(=O)(=O)N2CCN(Cc3ccccc3)CCN(S(=O)(=O)c3ccc(C)cc3)CCN(S(=O)(=O)c3ccc(C)cc3)CC2)cc1
66 | 197 to 200 | O=S(=O)(Nc1ccccc1OCC1CCN(c2ccncc2)CC1)c1ccc2cc(Br)ccc2c1
67 | 193 to 195 | O=C(NNS(=O)(=O)c1ccc([N+](=O)[O-])cc1)c1ccccc1
68 | 217 to 220 | O=C(NCc1ccccc1)c1cc2ccnc(Cl)c2[nH]1
69 | 92 to 94 | C=C(C)c1cc(C(=O)OC)c(OCc2ccccc2)cc1OCc1ccccc1
70 | 262 to 264 | COc1ccc(Cc2nnc3c4ccccc4c(Nc4cccc(-c5nnn(C)n5)c4)nn23)cc1
71 | 180 to 182 | Cc1cc(-n2cnn(Cc3ccc(F)cc3)c2=O)sc1C(=O)NCc1cccnc1
72 | 123 to 125 | CSc1ccc(S(=O)(=O)N2CCCC2=O)cc1
73 | 195 to 197 | COCc1nc2c(N)nc3cc(OCc4ccccc4)ccc3c2n1CCc1ccccc1
74 | 104 to 106 | CC(=O)c1ccc2c(c1)ncn2-c1cccc(C(=NOC(C)C)OC2CCCN(C)C2)c1 (stereo unspecified)
75 | 100 to 103 | COC(=O)c1ccccc1Nc1c(Cl)cccc1Cl
76 | 62 | C=CCOc1cc(OCc2ccccc2)ccc1O
77 | 101 | COc1ccc(Nc2nc(Cl)cc3ccccc23)cc1
78 | 190 to 191 | CCNC(=O)c1ccc(CN2C(=O)C3(COc4cc5c(cc43)CCO5)c3ccccc32)cc1 (stereo unspecified)

Row | melting point [°C] | SMILES
79 | 111 to 112 | COc1ccc(N2CCN(C(=O)CC3CCc4ccccc43)CC2)cc1 (stereo unspecified)
80 | 82 | CCCCc1cc2c(N=C3SC[C@@H]4Cc5ccccc5CN34)cccc2cn1
81 | 198 to 200 | CC(=O)c1ccc(N2CCN(Cc3n[nH]c4ccccc34)CC2)cc1
82 | 246 to 247 | O=C(Nc1cccc2cnccc12)NC1CC2(CCC2)Oc2c(O)cccc21 (stereo unspecified)
83 | 308 to 311 | Clc1ccc(-c2ccnc(Nc3nc4ccccc4[nH]3)n2)cn1
84 | 208 to 210 | CC(C)(C)OC(=O)N1CCc2c(n(CC(=O)Nc3ccccc3)c3ccc(Cl)c(Cl)c23)CC1
85 | 160 to 165 | O=C(c1cc(-c2ccccc2)ccn1)N(O)Cc1ccccc1
86 | 246 | O=C1c2cccc(Sc3ccccc3)c2C(=O)c2cccc(Nc3cccc([N+](=O)[O-])c3)c21
87 | 68 to 69 | CC(C)(COCc1cccc(Oc2ccccc2)c1)c1ccc(O)c(Cl)c1
88 | 140 to 141 | O=C1C(c2ccccc2)OC(=S)N1Nc1ccccc1 (stereo unspecified)
89 | 172 to 174 | O=C(c1ccc(F)cc1)N1CCN(S(=O)(=O)c2ccc(Nc3ccnc4cc(C(F)(F)F)ccc34)cc2)CC1
90 | 165 to 168 | COc1cc2c(=O)c(C)cn3c4ccccc4c(c1)c23
91 | 175 | COC(=O)c1ccc2c(c1)c1cc(-c3ccc(CN4CCOCC4)cc3)c(=O)n(C)c1n2C
92 | 120 | CCCCc1nc(SC)c(C(=O)OCC)n1Cc1cccc(-c2ccc(S(=O)(=O)NC#N)cc2)c1
93 | 150 to 153 | Cc1ccccc1-c1nc(=S)n(Cc2ccccc2)[nH]1
94 | 148 to 151 | Cc1ccccc1-c1cnc2c(C(F)(F)F)cccc2c1-c1cccc(N)c1
95 | 182 to 184 | CCCNC(=O)C(C)Cc1ccc2c(c1)c(Cc1ccc(C(=O)NS(=O)(=O)c3ccccc3C)cc1OC)cn2C(C)C (stereo unspecified)
96 | 31 to 32 | O=C(c1ccccc1)c1ccc(OCCOCCO)cc1
